Reference: US5084453A, “1-carboxy-1-vinyloxyimino aminothiazole cephalosporin derivatives” (priority 1988, dated 1992)
Values after ≈ are worked out from the molar mass of the structure shown. Read-outs that look alike come from different tables or passages of the source.

Tests used:
Test in all cases: in vitro antibacterial activity, agar plate dilution method
Format in all cases: cell-based
A. calcoaceticus No. 4 = settings: Acinetobacter calcoaceticus, NO.4; 10^6 CFU/ml; Mueller Hinton agar, 37° C., 16 hours; read-out: MIC
Method: (§1) Now, the in vitro antibacterial activities of the compounds of the present invention against various microorganisms, were measured by the following agar plate dilution method.
(§2) One platinum loopfull of each test microorganism incubated overnight in Mueller Hinton broth, was inoculated to Mueller Hinton agar (MH agaer). Such culture media containing various antibiotics in various concentrations were prepared. After incubation at 37° C. for 16 hours, the minimum inhibitory concentrations (MIC μg/ml) were measured.

E. cloacae 963 = settings: Enterobacter cloacae, 963, 16 h
Method: as §1, §2

E. cloacae Nek 39* = settings: Enterobacter cloacae
Method: as §1, §2

E. coli CSH(RE45)* = settings: Escherichia coli; 10^6 CFU/ml; β-Lactamase-producing strain; 37° C., 16 hours; read-out: MIC
Method: as §1, §2

E. coli CSH2(RK1)* = settings: Escherichia coli, 16 h
Method: as §1, §2

E. coli GN5482* = settings: Escherichia coli
Method: as §1, §2

E. coli NIHJ JC2 = settings: Escherichia coli, NIHJJC2; 10^6 CFU/ml; Mueller Hinton agar, 37° C., 16 hours; read-out: MIC
Method: as §1, §2

K. oxytoca GN10650* = settings: Klebsiella oxytoca, GN10650, 16 h
Method: as §1, §2

K. pneumoniae No. 42* = settings: Klebsiella pneumoniae, 16 h
Method: as §1, §2

K. pneumoniae PC1-602 = settings: Klebsiella pneumoniae
Method: as §1, §2

M. morganii GN5407* = settings: Morganella morganii
Method: as §1, §2

P. vulgaris HX-19 = settings: Proteus vulgaris, HX19; 10^6 CFU/ml; Mueller Hinton agar, 37° C., 16 hours; read-out: MIC
Method: as §1, §2

P. vulgaris No. 33* = settings: Proteus vulgaris
Method: as §1, §2

Ps. aeruginosa AK 109 = settings: Pseudomonas aeruginosa, AK109; 10^6 CFU/ml; Mueller Hinton agar, 37° C., 16 hours; read-out: MIC
Method: as §1, §2

Ps. aeruginosa AKR17 = settings: Pseudomonas aeruginosa, AKR17; 10^6 CFU/ml; Mueller Hinton agar, 37° C., 16 hours; read-out: MIC
Method: as §1, §2

Ps. aeruginosa IFO3445 = settings: Pseudomonas aeruginosa
Method: as §1, §2

Ps. cepacia 23 = tested on: Ps. cepacia 23
Method: as §1, §2

S. aureus 209P NIHJ-JC1 = settings: Staphylococcus aureus
Method: as §1, §2

S. marcescens IAM 1184 = settings: Serratia marcescens
Method: as §1, §2

S. marcescens No. 16-2* = settings: Serratia marcescens
Method: as §1, §2

[1] = 10^6 CFU/ml, β-Lactamase-producing strain, 37° C., 16 hours, read-out: MIC
[2] = PC1602, 10^6 CFU/ml, Mueller Hinton agar, 37° C., 16 hours, read-out: MIC
[3] = Burkholderia cepacia, 23, 10^6 CFU/ml, Mueller Hinton agar, 37° C., 16 hours, read-out: MIC
[4] = IAM1184, 10^6 CFU/ml, Mueller Hinton agar, 37° C., 16 hours, read-out: MIC

Row | SMILES | MIC (A. calcoaceticus No. 4) [mg/L] | MIC (E. cloacae 963) [mg/L] | MIC (E. cloacae Nek 39*; [1]) [mg/L] | MIC (E. coli CSH(RE45)*) [mg/L] | MIC (E. coli CSH2(RK1)*) [mg/L] | MIC (E. coli NIHJ JC2) [mg/L] | MIC (K. oxytoca GN10650*) [mg/L] | MIC (K. pneumoniae No. 42*) [mg/L] | MIC (K. pneumoniae PC1-602; PC1602, 16 h) [mg/L] | MIC (M. morganii GN5407*; GN5407, 16 h) [mg/L] | MIC (P. vulgaris HX-19) [mg/L] | MIC (Ps. aeruginosa AK 109) [mg/L] | MIC (Ps. aeruginosa AKR17) [mg/L] | MIC (Ps. aeruginosa IFO3445; IFO3445, 16 h) [mg/L] | MIC (S. aureus 209P NIHJ-JC1; 16 h) [mg/L] | MIC (S. marcescens IAM 1184; IAM1184, 16 h) [mg/L] | MIC (S. marcescens No. 16-2*; [1]) [mg/L] | MIC (E. coli GN5482*; GN5482, 16 h) [mg/L] | MIC (P. vulgaris No. 33*; [1]) [mg/L] | MIC (Ps. cepacia 23; [3]) [mg/L] | further results
1 | C=C(O/N=C(\C(=O)N[C@@H]1C(=O)N2C(C(=O)[O-])=C(C[n+]3cccc(C(=O)O)c3)CS[C@H]12)c1csc(N)n1)C(=O)O [Example 3, 7β-[2-(2-aminothiazol-4-yl)-2-(1-carboxy-1-vinyloxyimino)acetamido]-3-(3-carboxy-1-pyridinio)methyl-3-cephem-4-carboxylate (syn-isomer)] | 25 (≈ 43.5 µM) | 0.1 (≈ 0.174 µM) | 3.12 (≈ 5.43 µM) | 0.05 (≈ 0.087 µM) | 0.05 (≈ 0.087 µM) | 0.2 (≈ 0.348 µM) | 0.2 (≈ 0.348 µM) | 0.39 (≈ 0.679 µM) | 0.025 (≈ 0.0435 µM) | 0.05 (≈ 0.087 µM) | 0.0125 (≈ 0.0218 µM) | 100 (≈ 174 µM) | > 100 | 6.25 (≈ 10.9 µM) | 6.25 (≈ 10.9 µM) | 0.05 (≈ 0.087 µM) | 3.12 (≈ 5.43 µM) |  |  |  | MIC (E. coli GN5482*; GN5482, 10^6 CFU/ml, β-Lactamase-producing strain, 37° C., 16 hours, read-out: MIC): 3.12 mg/L (≈ 5.43 µM); MIC (P. vulgaris No. 33*; 16 h): 0.05 mg/L (≈ 0.087 µM); MIC (Ps. cepacia 23; Burkholderia cepacia, 23, 16 h): 6.25 mg/L (≈ 10.9 µM)
2 | C=C(O/N=C(\C(=O)N[C@@H]1C(=O)N2C(C(=O)[O-])=C(C[n+]3cccc(C(N)=O)c3)CS[C@H]12)c1csc(N)n1)C(=O)O [Example 4, 7β-[2-(2-aminothiazol-4-yl)-2-(1-carboxy-1-vinyloxyimino)acetamido] vinyloxyimino)acetamido]-3-(3-carbamoyl-1-pyridinio)methyl-3-cephem-4-carboxylate (syn-isomer)] | 3.12 (≈ 5.44 µM) | 0.05 (≈ 0.0872 µM) |  | 0.025 (≈ 0.0436 µM) | 0.025 (≈ 0.0436 µM) | 0.05 (≈ 0.0872 µM) | 0.1 (≈ 0.174 µM) | 0.1 (≈ 0.174 µM) |  |  | 0.0125 (≈ 0.0218 µM) | 12.5 (≈ 21.8 µM) | > 100 | 1.56 (≈ 2.72 µM) | 1.56 (≈ 2.72 µM) |  |  | 0.2 (≈ 0.349 µM) | 0.0125 (≈ 0.0218 µM) | 3.12 (≈ 5.44 µM) | MIC (E. cloacae Nek 39*; 16 h): 0.2 mg/L (≈ 0.349 µM); MIC (K. pneumoniae PC1-602; [2]): 0.0125 mg/L (≈ 0.0218 µM); MIC (M. morganii GN5407*; GN5407, 10^6 CFU/ml, β-Lactamase-producing strain, 37° C., 16 hours, read-out: MIC): 0.0125 mg/L (≈ 0.0218 µM); MIC (S. marcescens IAM 1184; [4]): 0.0125 mg/L (≈ 0.0218 µM); MIC (S. marcescens No. 16-2*; 16 h): 0.78 mg/L (≈ 1.36 µM)
3 | C=C(O/N=C(\C(=O)N[C@@H]1C(=O)N2C(C(=O)[O-])=C(C[n+]3ccc(C(=O)O)cc3)CS[C@H]12)c1csc(N)n1)C(=O)O [Example 5, 7β-[2-(2-aminothiazol-4-yl)-2-(1-carboxy-1-vinyloxyimino)acetamido]-3-(4-carboxy-1-pyridinio)methyl-3-cephem-4-carboxylate (syn-isomer)] | 50 (≈ 87 µM) | 0.2 (≈ 0.348 µM) | 3.12 (≈ 5.43 µM) | 0.05 (≈ 0.087 µM) | 0.2 (≈ 0.348 µM) | 0.2 (≈ 0.348 µM) | 0.39 (≈ 0.679 µM) | 0.39 (≈ 0.679 µM) | 0.025 (≈ 0.0435 µM) | 0.025 (≈ 0.0435 µM) | < 0.006 | 25 (≈ 43.5 µM) | > 100 |  |  | 0.025 (≈ 0.0435 µM) |  | 1.56 (≈ 2.72 µM) | 0.0125 (≈ 0.0218 µM) | 12.5 (≈ 21.8 µM) | MIC (Ps. aeruginosa IFO3445; IFO3445, 10^6 CFU/ml, Mueller Hinton agar, 37° C., 16 hours, read-out: MIC): 25 mg/L (≈ 43.5 µM); MIC (S. aureus 209P NIHJ-JC1; 10^6 CFU/ml, Mueller Hinton agar, 37° C., 16 hours, read-out: MIC): 12.5 mg/L (≈ 21.8 µM); MIC (S. marcescens No. 16-2*; 16 h): 6.25 mg/L (≈ 10.9 µM)
4 | C=C(O/N=C(\C(=O)N[C@@H]1C(=O)N2C(C(=O)[O-])=C(C[n+]3ccc(C(N)=O)cc3)CS[C@H]12)c1csc(N)n1)C(=O)O [Example 6, 7β-[2-(2-aminothiazol-4-yl)-2-(1-carboxy-1-vinyloxyimino)acetamido]-3-(4-carbamoyl-1-pyridinio)methyl-3-cephem-4-carboxylate (syn-isomer)] | 12.5 (≈ 21.8 µM) | 0.05 (≈ 0.0872 µM) |  | 0.025 (≈ 0.0436 µM) | 0.025 (≈ 0.0436 µM) | 0.05 (≈ 0.0872 µM) | 0.2 (≈ 0.349 µM) | 0.1 (≈ 0.174 µM) |  | 0.025 (≈ 0.0436 µM) | 0.0125 (≈ 0.0218 µM) | 12.5 (≈ 21.8 µM) | > 100 | 6.25 (≈ 10.9 µM) | 1.56 (≈ 2.72 µM) |  | 3.12 (≈ 5.44 µM) | 0.39 (≈ 0.68 µM) | 0.0125 (≈ 0.0218 µM) | 3.12 (≈ 5.44 µM) | MIC (E. cloacae Nek 39*; 16 h): 1.56 mg/L (≈ 2.72 µM); MIC (K. pneumoniae PC1-602; [2]): < 0.006 mg/L; MIC (S. marcescens IAM 1184; [4]): < 0.006 mg/L
